Experimental findings from ChEMBL document CHEMBL2069189, “Discovery of checkpoint kinase inhibitor (S)-5-(3-fluorophenyl)-N-(piperidin-3-yl)-3-ureidothiophene-2-carboxamide (AZD7762) by structure-based design and optimization of thiophenecarboxamide ureas” (J Med Chem, 2012) are described below.

The target in data set [1] is T1, Serine/threonine-protein kinase Chk1 (Homo sapiens, UniProt O14757).
T1 sequence (O14757 whole entry): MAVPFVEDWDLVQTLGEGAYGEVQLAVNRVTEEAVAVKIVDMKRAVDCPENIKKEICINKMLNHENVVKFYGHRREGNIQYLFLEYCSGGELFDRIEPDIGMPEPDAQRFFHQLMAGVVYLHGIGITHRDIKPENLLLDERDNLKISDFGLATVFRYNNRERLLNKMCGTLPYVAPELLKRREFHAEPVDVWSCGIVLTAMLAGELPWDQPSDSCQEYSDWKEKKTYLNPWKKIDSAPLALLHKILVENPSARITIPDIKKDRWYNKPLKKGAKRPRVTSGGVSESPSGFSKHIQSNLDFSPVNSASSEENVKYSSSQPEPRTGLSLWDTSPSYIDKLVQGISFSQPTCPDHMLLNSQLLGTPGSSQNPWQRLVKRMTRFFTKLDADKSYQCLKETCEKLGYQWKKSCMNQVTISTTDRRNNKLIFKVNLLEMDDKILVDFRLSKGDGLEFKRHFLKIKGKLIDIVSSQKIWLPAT
The data set is described as follows: Inhibition of human recombinant CHK1 expressed in insect cells using biotinylaminohexanoyl-KKVSRSGLYRSPMPENLNRPR as substrate after 2 hrs by scintillation proximity assay. A general note: In a scintillation proximity assay essentially only radioactivity close to the scintillant gives light.

Data set [2] can be described thus: Fraction unbound in human plasma. The format is ADME, cell-free.
The nature of data set [3]: Lipophilicity, log D of the compound. Type of data set: physicochemical. Particulars: octanol/water.
The nature of data set [4]: AUC in nude mouse. The format is ADME, organism-based. Details: concentration or dose not given beside the values. Particulars: plasma.
A short description of data set [5]: Clearance in nude mouse. Type of data set: ADME, organism-based. Particulars: in vivo.
The nature of data set [6]: Volume of distribution at steady state in nude mouse. Type of data set: ADME, organism-based. Particulars: in vivo, read-out: Vdss.
Data set [7] is described as follows: Half life in nude mouse. The format is ADME, organism-based. Particulars: in vivo.
A short description of data set [8]: Thermodynamic solubility of the compound in 0.1 M phosphate buffer at pH 7.4. As to conditions: read-out: Therm_solubility. The format is physicochemical.
For data set [9], the target named is Serine/threonine-protein kinase Chk2 (Homo sapiens, UniProt O96017). The data set is described as follows: Inhibition of CHK2.
A short description of data set [10]: Clearance in dog. As to conditions: in vivo. The format is ADME, organism-based, Canis lupus familiaris.
Data set [11] is described as follows: Clearance in rat. Type of data set: ADME, organism-based. Particulars: in vivo.
The nature of data set [12]: Half life in dog. Type of data set: ADME, organism-based, Canis lupus familiaris. Particulars: in vivo.
Data set [13] can be described thus: Half life in rat. The format is ADME, organism-based. Particulars: in vivo.
Another data set deals with CYP450 (Homo sapiens, UniProt P04798+P05177+P05181+P08684+P10632+P10635+P11509+P11712+P13584+P20813+P20815+P20853+P24462+P24903+P33260+P33261+P51589+P78329+P98187+Q02928+Q08477+Q16678+Q16696+Q5TCH4+Q6VVX0+Q7Z449+Q8TAV3+Q96SQ9+Q9HB55). The data set is described as follows: Inhibition of CYP450. The format is ADME.

Broadly, the IC50 is the concentration at which inhibition is half-maximal. By fraction unbound is commonly meant free concentration divided by total concentration. In general, logD refers to the decadic logarithm of the distribution of all forms, ionised or not, between an organic phase and buffer at a given pH. By AUC is commonly meant concentration integrated over time. A word on the clearance: it is the volume of plasma or blood freed of the substance per unit of time. A word on the half-life: it is how long it takes for the measured level to halve.

SMILES strings stand for the structures. Bounds are passed on as bounds.

Serine/threonine-protein kinase Chk2, sequence (O96017 whole entry): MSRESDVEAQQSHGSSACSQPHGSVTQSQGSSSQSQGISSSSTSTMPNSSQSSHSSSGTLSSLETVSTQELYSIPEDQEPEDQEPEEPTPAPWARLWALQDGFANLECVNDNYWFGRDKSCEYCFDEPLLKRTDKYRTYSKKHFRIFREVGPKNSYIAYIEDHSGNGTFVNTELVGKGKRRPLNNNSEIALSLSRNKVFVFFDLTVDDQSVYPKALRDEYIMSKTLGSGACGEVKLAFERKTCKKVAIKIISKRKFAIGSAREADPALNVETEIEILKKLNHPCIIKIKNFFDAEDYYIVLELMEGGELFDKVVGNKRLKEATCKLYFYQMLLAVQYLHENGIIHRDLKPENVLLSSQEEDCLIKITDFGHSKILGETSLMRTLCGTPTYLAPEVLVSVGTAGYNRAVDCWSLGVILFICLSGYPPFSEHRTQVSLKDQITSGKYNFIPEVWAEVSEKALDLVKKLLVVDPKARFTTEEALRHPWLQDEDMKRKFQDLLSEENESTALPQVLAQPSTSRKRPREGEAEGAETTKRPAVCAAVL

As for `NC(=O)Nc1cc(-c2ccccc2)sc1C(=O)N[C@H]1CCCNC1`, the IC50 in data set [1] is 10 nM. The compound further gave a fraction unbound in [2] of 0.32. Moreover, the logD in data set [3] is 1.04.
Consider `NC(=O)Nc1cc(-c2ccccc2F)sc1C(=O)N[C@H]1CCCNC1`, for which the IC50 in [1] is 20 nM.
For the compound `Cl.NC(=O)Nc1sc(-c2cccc(F)c2)cc1C(=O)N[C@H]1CCCNC1`, in data set [4], the AUC was determined as 3.8 µM·h. The clearance in [5] came to 33 mL/min/kg. In data set [6], the Vd is 2.8 L/kg. Moreover, the half-life in data set [7] came to 1 h.
On the same counts, the results for `Cl.NC(=O)Nc1sc(-c2ccc(F)cc2)cc1C(=O)N[C@H]1CCCNC1` are 1.5 µM·h, 81 mL/min/kg, 6.1 L/kg and 1.2 h.
In the case of `Cl.NC(=O)Nc1cc(-c2ccc(F)cc2)sc1C(=O)N[C@H]1CCCNC1`, the concentration for half-maximal inhibition (IC50) in data set [1] was found to be 6 nM. Further, the AUC in [4] was 1.46 µM·h. Moreover, the clearance in [5] is 86 mL/min/kg. For the same compound, the Vd in data set [6] turned out to be 8.5 L/kg. The same compound showed a half-life in data set [7] of 1.2 h.
`NC(=O)Nc1cc(-c2cccc(Cl)c2)sc1C(=O)N[C@H]1CCCNC1`: in data set [1], the IC50 amounted to 8 nM.
On to `NC(=O)Nc1sc(-c2cc(F)cc(F)c2)cc1C(=O)N[C@H]1CCCNC1`, for which the IC50 in data set [1] was found to be 12 nM.
On to `NC(=O)Nc1cc(-c2cc(F)cc(F)c2)sc1C(=O)N[C@H]1CCCNC1`, for which the IC50 in data set [1] is 10 nM.
For `Cl.NC(=O)Nc1sc(-c2cccc(F)c2F)cc1C(=O)N[C@H]1CCCNC1`, the IC50 in data set [1] was 11 nM. For the same compound, the AUC in data set [4] is 1.7 µM·h. For the same compound, in data set [5], the clearance amounted to 71 mL/min/kg. Besides, the Vd in [6] amounted to 4.5 L/kg. The half-life in [7] was 1.2 h.
In the same order, the values of `Cl.NC(=O)Nc1cc(-c2cccc(F)c2F)sc1C(=O)N[C@H]1CCCNC1` are 20 nM, 1.4 µM·h, 85 mL/min/kg, 7.7 L/kg and 1.4 h.
For the compound `NC(=O)Nc1sc(-c2ccc(F)cc2F)cc1C(=O)N[C@H]1CCCNC1`, the IC50 in data set [1] came to 13 nM.
For `NC(=O)Nc1cc(-c2ccc(F)cc2F)sc1C(=O)N[C@H]1CCCNC1`, in data set [1], the IC50 stood at 30 nM.
Regarding `NC(=O)Nc1sc(-c2ccc(Cl)c(Cl)c2)cc1C(=O)N[C@H]1CCCNC1`, in data set [1], the IC50 came to 30 nM.
Turning to `NC(=O)Nc1cc(-c2ccc(Cl)c(Cl)c2)sc1C(=O)N[C@H]1CCCNC1`, the IC50 in [1] was determined as 40 nM.
With `N#Cc1ccc(-c2cc(NC(N)=O)c(C(=O)N[C@H]3CCCNC3)s2)cc1`, the IC50 in data set [1] came out at 6 nM.
The same measure, in the same setting: the same measure for `N#Cc1cccc(-c2cc(C(=O)N[C@H]3CCCNC3)c(NC(N)=O)s2)c1`: 9 nM; for `N#Cc1cccc(-c2cc(NC(N)=O)c(C(=O)N[C@H]3CCCNC3)s2)c1`: 7 nM.
The compound `NC(=O)Nc1sc(-c2ccccc2)cc1C(=O)N[C@H]1CCCNC1` displayed an unbound share (fraction unbound) in data set [2] of 0.077.
Regarding `NC(=O)Nc1cc(-c2cccc(F)c2)sc1C(=O)N[C@H]1CCCNC1` [AZD-7762], the solubility thermodynamic in data set [8] was more than 1000 µM. Also, the AUC in [4] worked out at 2.5 µM·h. Further, the clearance is 50 mL/min/kg in [5], 35.7 mL/min/kg in data set [10] and 12.8 mL/min/kg in data set [11]. The Vd in data set [6] came to 3.9 L/kg. Moreover, the half-life in data set [7] was 1.1 h; in data set [12], 1.5 h; in data set [13] it was 5.2 h. Further, the concentration for half-maximal inhibition (IC50) was less than 10 nM in data set [9] and more than 10000 nM at CYP450. Moreover, the fraction unbound in [2] is 0.26. Further, the logD in data set [3] worked out at 1.2.
